Laboratory results reported in US10617693B2, “Methods of treating and/or preventing actinic keratosis” (Athenex, Inc., priority 2017, dated 2020).

What was measured:
[1] = system: subjects with AK on the dorsal forearm; details: human, in vivo
Protocol: A Phase 1, single-center, safety, tolerability and pharmacokinetic study of KX-01 was performed on subjects with AK on the dorsal forearm. This was an open-label, uncontrolled, nonrandomized, sequential group clinical trial conducted at a single investigational center in the United States. The primary objectives of the study were to assess the safety, tolerability and pharmacokinetics of KX-01 in subjects with AK. The secondary objective was to evaluate the activity of KX-01 administered topically to the dorsal forearm in subjects with AK.
KX-01 was administered topically on treatment days. All subjects were monitored for safety and tolerability that included LSRs, AEs, vital signs, clinical laboratory tests, ECGs, and physical examinations at baseline and at pre-defined time points during treatment and follow-up on days 1, 2, 3, 4, 5, 8, 10, 17, 31 and 45.
LSRs (erythema, flaking/scaling, crusting, swelling, vesiculation/pustulation, erosion/ulceration) were assessed by the investigator or trained designee using a 4-point scale according to the protocol. The subject's assessment of the symptoms (stinging/burning, pruritus) associated with irritation of the treatment area was evaluated on a 4-point scale (0=none, 1=mild, 2=moderate, 3=severe). Subjects were queried for spontaneously reported AEs at each study visit before assessment of LSRs. LSRs and AEs were reported separately. All LSRs were to be followed to resolution or stabilization.

[2] = system: AK lesions on the face or scalp; test: Phase 2a study KX01-AK-002: AK lesion counts and clearance at day 57, 0.5 mg KX-01 on 25 cm^2; type: in vivo, human; details: for Subjects with 100% clearance of AK lesions on day 57 / Subjects with at least 75% reduction of AK lesions on day 57 / AK lesion count, median: Cohort 1 (5-day), interim
From the text: An ongoing Phase 2a, open-label, multicenter, activity and safety study of KX-01 administered topically in subjects with AK on the face or scalp is described herein. […] Secondary objectives are to assess the activity of KX-01 administered topically during Days 1-57 based on reduction of AK lesion counts from baseline, assess the safety and tolerability and pharmacokinetics, and contrast the dose regimens (5-day treatment with 3-day treatment) in terms of activity and safety in subjects with AK on the face or scalp. This uncontrolled, nonrandomized trial is being conducted at 16 investigational sites in the United States. Enrollment is sequential for 2 cohorts of approximately 80 subjects each. Enrollment is closed for Cohort 1 and ongoing for Cohort 2. The two treatment cohorts are summarized below: • Cohort 1: 0.5 mg KX-01 administered topically to a contiguous treatment area of 25 cm^2 with 4-8 clinically typical AK lesions for 5 consecutive days • Cohort 2: 0.5 mg KX-01 administered topically to a contiguous treatment area of 25 cm^2 with 4-8 clinically typical AK lesions for 3 consecutive days
0.5 mg KX-01 is administered topically to an area of 25 cm^2 on the face or scalp by site staff on treatment days. […] AK lesion counts are recorded at baseline, days 8, 15, 29, and 57. […] Standardized photography of treatment area is performed at baseline, day 8 and day 57. Plasma samples are being collected at preplanned time points on days 1 and 5 for Cohort 1, and on days 1 and 3 for Cohort 2.
The Phase 2a trial described in Example 2a was completed with 84 eligible subjects enrolled in each of two cohorts: one cohort was subjected to the treatment for 5 consecutive days, and the other cohort was subjected to the treatment for 3 consecutive days. The results are described below and in FIG. 5.

[3] = system: AK lesions on the dorsal forearm; test: Phase 1 study KX01-AK-01-US: AK lesion counts and clearance; type: in vivo, human
Protocol: KX-01 was administered topically on treatment days. […] Standardized photography of the treatment area was performed.

[4] = Plasma pharmacokinetics after topical administration, LC-MS/MS; type: in vivo, human
Protocol: KX-01 was tested in adult subjects with actinic keratosis of the dorsal forearm (Example 1) and actinic keratosis on the face or scalp (Examples 2a and 2b). In Example 1, the plasma pharmacokinetics (PK) of KX-01 following topical administration was evaluated by collection of plasma on days 1 and 3 of the 3-day regimens and on days 1 and 5 of the 5-day regimens (Table 12). In Examples 2a and 2b, plasma samples were collected on days 1 and 5 of Cohort 1 (Table 13). Plasma samples at similar time points were collected on days 1 and 3 of Cohort 2. KX-01 was measured in human plasma using a validated LC-MS/MS assay with a lower limit of quantification (LLOQ) of 0.1 ng/mL.

With `O=C(Cc1ccc(-c2ccc(OCCN3CCOCC3)cc2)cn1)NCc1ccccc1` [KX-01] the “Serious adverse event (SAE) or death” value [1] was “no serious adverse event (SAE) or death”, the “Activity compared to Picato Phase 3 studies” value ([2]; 5-day regimen, cross-study tabulation) was “may be comparable” and the “Subjects with 100% clearance of AK lesions on day 57” value (shortened to “Subjects with 100% clearance”) ([2]; face, 35 subjects) was 43%. For the same compound, the “Subjects with at least 75% reduction of AK lesions on day 57” value (from here on “Subjects with at least 75% reduction”) ([2]; face, 35 subjects) was 60%, the “Subjects with 100% clearance” value ([2]; overall, 67 subjects) was 36% and the “Subjects with at least 75% reduction” value ([2]; overall, 67 subjects) was 51%. For the same compound, the “Subjects with 100% clearance” value ([2]; scalp, 32 subjects) was 28%, the “Subjects with at least 75% reduction” value ([2]; scalp, 32 subjects) was 41% and the “AK lesion count, median” value ([2]; Day 1) was 6.0. For the same compound, the “AK lesion count, median” value ([2]; Day 8) was 5.0, the “AK lesion count, median” value ([2]; Day 15) was 4.0 and the “AK lesion count, median” value ([2]; Day 29) was 2.0. The “AK lesion count, median” value ([2]; Day 57) was 2.0, the “Activity of 5-day versus 3-day regimen” value ([2]; Examples 1, 2a and 2b) was “greater activity than the 3-day regimen” and the “Complete Clearance on Day 45 (100% reduction in AK lesions vs Baseline), n/N (%)” value ([3]; Cohort 2: 2 mg/100 cm^2 QD x3 days) was 0/10. For the same compound, the “AK lesion count, median (min, max)” value ([3]; Day 1 (Baseline), Cohort 1: 0.5 mg/25 cm^2 QD x3 days) was 5.0 (4, 5), the “AK lesion count, median (min, max)” value ([3]; Day 1 (Baseline), Cohort 2: 2 mg/100 cm^2 QD x3 days) was 11.5 (8, 16) and the “AK lesion count, median (min, max)” value ([3]; Day 1 (Baseline), Cohort 3: 0.5 mg/25 cm^2 QD x5 days) was 6.0 (5, 6). The “AK lesion count, median (min, max)” value ([3]; Day 1 (Baseline), Cohort 4: 2 mg/100 cm^2 QD x5 days) was 11.0 (10, 16), the “AK lesion count, median (min, max)” value ([3]; Day 4, Cohort 1: 0.5 mg/25 cm^2 QD x3 days) was 5.0 (4, 5) and the “AK lesion count, median (min, max)” value ([3]; Day 4, Cohort 2: 2 mg/100 cm^2 QD x3 days) was 9.0 (6, 16). For the same compound, the “AK lesion count, median (min, max)” value ([3]; Day 10, Cohort 1: 0.5 mg/25 cm^2 QD x3 days) was 5.0 (4, 5), the “AK lesion count, median (min, max)” value ([3]; Day 10, Cohort 2: 2 mg/100 cm^2 QD x3 days) was 7.0 (6, 11) and the “AK lesion count, median (min, max)” value ([3]; Day 10, Cohort 3: 0.5 mg/25 cm^2 QD x5 days) was 5.0 (5, 6). The “AK lesion count, median (min, max)” value ([3]; Day 10, Cohort 4: 2 mg/100 cm^2 QD x5 days) was 10.0 (10, 10), the “AK lesion count, median (min, max)” value ([3]; Day 17, Cohort 1: 0.5 mg/25 cm^2 QD x3 days) was 4.5 (3, 5) and the “AK lesion count, median (min, max)” value ([3]; Day 17, Cohort 2: 2 mg/100 cm^2 QD x3 days) was 7.0 (5, 15). For the same compound, the “AK lesion count, median (min, max)” value ([3]; Day 17, Cohort 3: 0.5 mg/25 cm^2 QD x5 days) was 5.0 (4, 6), the “AK lesion count, median (min, max)” value ([3]; Day 17, Cohort 4: 2 mg/100 cm^2 QD x5 days) was 10.0 (10, 11) and the “AK lesion count, median (min, max)” value ([3]; Day 31, Cohort 1: 0.5 mg/25 cm^2 QD x3 days) was 3.5 (1, 5). For the same compound, the “AK lesion count, median (min, max)” value ([3]; Day 31, Cohort 2: 2 mg/100 cm^2 QD x3 days) was 7.0 (1, 15), the “AK lesion count, median (min, max)” value ([3]; Day 31, Cohort 3: 0.5 mg/25 cm^2 QD x5 days) was 1.0 (0, 6) and the “AK lesion count, median (min, max)” value ([3]; Day 31, Cohort 4: 2 mg/100 cm^2 QD x5 days) was 6.0 (0, 11). For the same compound, the “AK lesion count, median (min, max)” value ([3]; Day 45, Cohort 1: 0.5 mg/25 cm^2 QD x3 days) was 2.5 (0, 4), the “AK lesion count, median (min, max)” value ([3]; Day 45, Cohort 2: 2 mg/100 cm^2 QD x3 days) was 4.0 (1, 10) and the “AK lesion count, median (min, max)” value ([3]; Day 45, Cohort 3: 0.5 mg/25 cm^2 QD x5 days) was 0.5 (0, 4). For the same compound, the “AK lesion count, median (min, max)” value ([3]; Day 45, Cohort 4: 2 mg/100 cm^2 QD x5 days) was 4.5 (0, 12), the “Change in AK lesion counts over time” value ([3]; all 4 cohorts) was “reductions in mean baseline AK lesion counts over time” and the “Activity of 5-day versus 3-day regimen” value ([3]; rates of complete and partial clearance) was 5-day regimen may provide better activity than the 3-day regimen. The “Plasma concentration, back-up sample” value ([4]; Day 5, 0.5 hours post-dose, back-up of the 23 ng/mL sample) was “BLQ”, the “Plasma concentration, aberrant primary sample” value ([4]; Day 5, 0.5 hours post-dose, likely cross contamination) was 0.023 µg/mL and the “Plasma concentration, back-up sample” value ([4]; Day 5, 1 hour post-dose, back-up of the 44 ng/mL sample) was 0.000351 µg/mL. The “Plasma concentration, aberrant primary sample” value ([4]; Day 5, 1 hour post-dose, likely cross contamination) was 0.044 µg/mL, the “Plasma samples above the limit of quantification” value ([4]; KX01-AK-002, after 1 day of treatment, of 336 samples) was 15 and the Measurable plasma concentrations ([4]; KX01-AK-002, all except three aberrant samples) was “below 0.7 ng/mL”. The “Subjects with measurable plasma concentrations at 4 hours post-dose on Day 5” value ([4]; KX01-AK-002 Cohort 1) was 42 out of 84, the “Subjects with quantifiable concentrations prior to the dose on Day 5” value ([4]; KX01-AK-002 Cohort 1) was 8 of 84 and the “Plasma concentration, back-up sample” value ([4]; back-up of the third aberrant sample) was 0.03 µg/mL. The “Plasma concentrations below the level of quantification (BLQ)” value ([4]; both studies) was 75%, the concentration at 5 days ([4]; human, plasma, up to 5 consecutive days of topical treatment, read-out: Systemic exposure (plasma concentration)) was less than 0.001 µg/mL and the “Apparent plasma concentration, aberrant sample” value ([4]; third aberrant sample, likely cross contamination) was “above 12,500 ng/mL”. For the same compound, the “Systemic exposure (plasma concentration)” value ([4]; up to 5 consecutive days of topical treatment) was less than 1 ng/mL.
